Experimental data as given in patent publication US20080146579A1, “TREATMENT OF PATIENTS WITH CHRONIC PULMONARY DISEASES AND NUTRITIONAL COMPOSITIONS THEREFORE” (N.V. Nutricia, priority 2006, published 2008).

What was measured:
[1] = system: pulmonary artery pressure; conditions: in vivo studies; cited from earlier work
[2] = system: liver cells; assay: in vitro experiments in liver cells, nucleotide status; assay type: cell-based; conditions: incubation with increasing concentrations
[3] = daily dose of 200 mg; cited from earlier work

For `CC(=O)N[C@@H](CS)C(=O)O` [NAC, N-acetyl cysteine], the “endotoxin-induced rise in pulmonary artery pressure” value [1] is listed as “attenuates”.

With `Nc1nc2ncc(CNc3ccc(C(=O)N[C@@H](CCC(=O)O)C(=O)O)cc3)nc2c(=O)[nH]1` [folic acid] the nucleotide status [2] was “able to restore the nucleotide status”.

For `COC1=C(OC)C(=O)C(C/C=C(\C)CC/C=C(\C)CC/C=C(\C)CC/C=C(\C)CC/C=C(\C)CC/C=C(\C)CC/C=C(\C)CC/C=C(\C)CC/C=C(\C)CCC=C(C)C)=C(C)C1=O` [CoQ10, Coenzyme Q10], the “increase in plasma CoQ10 levels” value [3] is given as “more than six-fold increase”.
